# Assay results published in PMC6138628, “Enhanced uptake of gH625 by blood brain barrier compared to liver in vivo: characterization of the mechanism by an in vitro model and implications for delivery” (Scientific Reports, 2018).
# Starred links: 1 amine or outer side, 2 acyl side, 3 side chain; linkers in the order of their positions; H or OH if unused. Non-standard residues stand in square brackets, D forms with d. Residues, ends and D or L forms follow the SMILES beside them. X1 = O=C([C@H](Cc1c[nH]cn1)N(c1ccc([N+](=O)[O-])c2nonc12)[*:1])[*:2]
# Assays:
# [1] = test system: brain / BBB; experiment: In vivo brain uptake, fluorescence microscopy of rat brain; parameters: species or system male Wistar rats
# Method: (§1) In vivo studies were performed in male Wistar rats housed under a 12 hours light-dark cycle with free access to food and water. The animals were allocated in five groups, each consisting of three rats. Three animal groups received a single i.v. administration of NBD-gH625 at a concentration of 10 µg, 20 µg, and 40 µg/100 g bw, respectively. Control group received vehicle while another group received gH-625 (40 µg/100 g bw). Both NBD-gH625 and gH625 were dissolved in phosphate-buffered saline. After 3.5 hours from the i.v. administration, the animals were anesthetized with Zoletil® (40 mg/100 g) and euthanized by decapitation. This study was carried out in strict accordance with recommendations in the European Guide for the Care and Use of Laboratory Animals. Every effort was made to minimize animal pain and suffering. All animal protocols were approved by the Committee on the Ethics of Animal Experiments of the University of Napoli Federico II (Italy) and the Italian Minister of Health. (Protocol number 2012/000180).
# The ex-vivo fluorescence microscopy analysis was performed to evaluate the distribution of NBD-gH625 on both sides of the BBB. In order to evaluate if there is a linear relationship between slides fluorescence integrated density and the amount of the peptide, a calibration curve was obtained. In particular, increasing amounts of NBD-gH625 (0–30 µM) were spotted on microscope slides and images at 515 nm were acquired (See the Results section) and analysed as described below. Brains were removed from animals, sectioned sagittally in thick slices, washed in PBS, mounted on coverslips, stained with DAPI (4′–6 Diamidino-2-Phenylindole, Dilactate) (Invitrogen, Carlsbad, CA, USA) and analysed under Axioskop fluorescence microscope (Zeiss). Images, at least 10 field of view (800 × 700 μm each) for each experimental class, were acquired using an AxioCam MRc5 (Zeiss) with DAPI filter (λex 350 nm; λem 461 nm) and a fluorescein isothiocyanate filter (λex 488 nm; λem 515 nm).
# To evaluate the distribution of NBD-gH625 on both sides of the BBB, we estimated the fluorescence inside the blood vessels (without discriminating between the amount present in the blood and that present in the endothelial cells) and outside the blood vessels in 10 images for each experimental class. In detail, to assess the NBD-gH625 that reached without crossing the BBB, we selected blood vessels as the region of interest (ROI) (inbound) and evaluated the fluorescence intensity; then, on the non-zero thresholded images, an inversion of selected ROI was carried out to obtain the complementary ROI to calculate the amounts of NBD-gH625 which crossed the BBB (outbound).
# The morphology of blood vessels was easily identified and outlined; the images were calibrated by ImageJ Rodbard function; integrated density values were calculated within the outlines exclusively, to be considered as inside fluorescence. Then, the thresholded and outlined images, to exclude both blood vessels and background values, were used to calculate the integrated density as outside fluorescence.
# (§2) To evaluate the effect of concentration on the systemic delivery of NBD-gH625, a fluorescence microscopy analysis was performed as previously reported.
# Briefly, livers and brains were isolated and fixed for 24 hours in Bouin’s fixative (71% picric acid, 5% acetic acid, 24% formaldehyde) and embedded in paraffin wax (Carlo Erba, Milan, Italy). Tissue sections (10 μm of thickness) were incubated in 0.1% Sudan Black B dissolved in 70% ethanol for 20 minutes to reduce the tissues autofluorescence. The excess of Sudan Black B was removed by washing with Tris-buffered saline containing 0.02% Tween 20[30],[31]. Sections were stained with DAPI to counterstain nuclei, then mounted with a coverslip in glycerol/phosphate-buffered saline (1:1) and acquired using an AxioCam MRc5 with DAPI filter (λex 350 nm; λem 461 nm) and a fluorescein isothiocyanate filter (λex 488 nm; λem 515 nm). […]
# [2] = test system: liver; experiment: In vivo liver uptake, fluorescence microscopy of rat liver slices; parameters: species or system male Wistar rats; conditions: single i.v. 10, 20, 40 µg/100 g bw, 3.5 hours
# Method: as §1, with “Every effort was made to minimize animal pain and suffering. All animal protocols were approved by the Committee on the Ethics of Animal Experiments of the University of Napoli Federico II (Italy) and the Italian Minister of Health. (Protocol number 2012/000180).” left out
# as §2
# Briefly, livers and brains were isolated and fixed for 24 hours in Bouin’s fixative (71% picric acid, 5% acetic acid, 24% formaldehyde) and embedded in paraffin wax (Carlo Erba, Milan, Italy). […] All images were then analysed using Fiji 1.50 software to determine the mean fluorescence and the integrated density, defined as the product of the mean fluorescence per the region of interest (μm^2)[32]. The percentage of delivered vs administered NBD-gH625 was calculated.
# [3] = single i.v., 3.5 hours after administration, ex vivo brain slices, 515 nm
smiles,measurement,setting,value
CC[C@H](C)[C@H](NC(=O)[C@H](CC(C)C)NC(=O)[C@H](C)NC(=O)[C@H](CC(N)=O)NC(=O)[C@H](Cc1ccc(O)cc1)NC(=O)[C@H](Cc1c[nH]cn1)NC(=O)[C@H](C)NC(=O)[C@H](Cc1c[nH]c2ccccc12)NC(=O)[C@H](CCCNC(=N)N)NC(=O)[C@@H](NC(=O)[C@H](CC(C)C)NC(=O)[C@@H](NC(=O)[C@H](CO)NC(=O)[C@H](C)NC(=O)[C@H](CC(C)C)NC(=O)CNC(=O)[C@H](Cc1c[nH]cn1)Nc1ccc([N+](=O)[O-])c2nonc12)[C@@H](C)O)[C@@H](C)O)C(=O)N[C@@H](CCCNC(=N)N)C(=O)N[C@@H](C)C(=O)N[C@@H](Cc1ccccc1)C(N)=O [NBD-gH625] (H-[X1]GLASTLTRWAHYNALIRAF-NH2),Integrated density of fluorescence on brain slices,"[1]; single i.v. 40 µg/100 g bw, 3.5 hours",comparable to the control
same,"Integrated density of fluorescence on brain slices, dependence on dose","[1]; single i.v. 10, 20, 40 µg/100 g bw, 3.5 hours",lower peptide concentrations are able to improve the reaching of the brain more compared to higher concentrations
same,"Percentage of peptide delivered in brain vs administered, dependence on dose","[1]; single i.v. 10, 20, 40 µg/100 g bw, 3.5 hours, integrated density calibrated with known amounts",lower doses produced higher percentages of delivered peptide
same,"Peptide crossing the BBB (fluorescence outside blood vessels, brain parenchyma)",[1]; [3],crosses the BBB
same,"Peptide delivered to the BBB (fluorescence inside blood brain vessels, integrated density)",[1]; [3],reaches the BBB of treated animals
same,"Integrated density of fluorescence on liver slices, dependence on dose",[2],lowest dose of NBD-gH625 has higher effect
same,"Percentage of peptide delivered in liver vs administered, dependence on dose",[2]; integrated density calibrated with known amounts,lower doses produced higher percentages of delivered peptide
